Source: article PMC6943709, “Synergistic Inhibition of Acetylcholinesterase by Alkaloids Derived from Stephaniae Tetrandrae Radix, Coptidis Rhizoma and Phellodendri Chinensis Cortex” (Molecules, 2019)
Where two headings read alike, the source gives them in different places.

Molecular target: T1, Acetylcholinesterase (AChE) (Mus musculus, UniProt P21836)
T1 construct: The assay medium consisted of brain lysate (5 mg/mL) containing different concentrations of testing drugs; from tissue; host or cells: mouse brain lysate
T1 sequence (P21836 32-614): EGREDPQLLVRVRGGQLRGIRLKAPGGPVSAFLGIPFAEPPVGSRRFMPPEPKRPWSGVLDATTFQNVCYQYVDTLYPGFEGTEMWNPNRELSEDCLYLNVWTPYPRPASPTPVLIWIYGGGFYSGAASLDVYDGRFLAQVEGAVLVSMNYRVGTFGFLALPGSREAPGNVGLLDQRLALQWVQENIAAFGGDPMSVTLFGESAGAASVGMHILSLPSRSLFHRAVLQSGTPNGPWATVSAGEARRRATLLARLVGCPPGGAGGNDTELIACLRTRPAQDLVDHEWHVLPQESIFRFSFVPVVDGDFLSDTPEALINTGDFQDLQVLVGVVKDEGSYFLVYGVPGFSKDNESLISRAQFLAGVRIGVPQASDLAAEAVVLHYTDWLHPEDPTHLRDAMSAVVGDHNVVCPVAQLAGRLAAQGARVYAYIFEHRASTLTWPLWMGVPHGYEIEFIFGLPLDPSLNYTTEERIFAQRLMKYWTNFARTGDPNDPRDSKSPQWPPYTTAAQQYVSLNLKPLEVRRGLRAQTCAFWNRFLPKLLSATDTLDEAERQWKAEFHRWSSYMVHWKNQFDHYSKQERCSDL
Test: biochemical
Type: biochemical
Conditions: for AChE Inhibitory Activity: ranking by IC50, molar concentration (alkaloids)
Method: The combinations of fangchinoline–coptisine/berberine at concentration ratios of 1:5, 1:2, 1:1, and 2:1 were individually prepared by mixing appropriate volumes of fangchinoline and coptisine or berberine stock solutions. The solutions of fangchinoline–coptisine combinations (with initial system concentrations 4:20, 10:20, 20:20, and 20:10 μM, respectively) were diluted into seven concentrations by DMSO, respectively. The solutions of fangchinoline–berberine combinations (with initial system concentrations 2:10, 5:10, 10:10, and 20:10 μM, respectively) were diluted into seven concentrations by DMSO, respectively. The stocks of tetrandrine, epiberberine, and palmatine were taken appropriately and diluted into six concentrations (with initial system concentrations 30, 100, and 50 μM, respectively) by DMSO, respectively.
The mouse brain lysate (0.1 g/mL, containing 10 mM HEPES (pH 7.4), 1 mM EDTA, 1 mM EGTA, 150 mM NaCl, 0.5% triton X-100, 10 μg/mL leupeptin, 10 μg/mL aprotinin, 10 μg/mL pepstatin, and 50 μg/mL benzamidine HCL) was prepared. AChE enzymatic activity was assayed by 96-well microtiter plate with a final volume of 200 μL, according to the Ellman method. […] Briefly, the mixture of brain lysate containing the testing drugs, Na2HPO4 buffer, and iso-OMPA solution were incubated at 37 °C for 10 min, and then ATCh and DNTB solutions were added. The reaction solution was incubated at 37 °C for 30 min, and AChE activity was determined by measuring the absorbance at 405 nm. To eliminate the drug–solvent influence on AChE enzymatic activity, the concentration of DMSO was controlled at 0.5% in the 200 μL reaction volume. In order to correct for color interference at 405 nm, a background color contrast group without brain lysate and a drug color contrast group without brain lysate were set, respectively. […] Tacrine was used as a positive control. Protein concentrations were measured with a kit from Bio-Rad (Hercules, CA, USA).

| Structure (SMILES) | AChE inhibitory potency (mouse brain lysate, result in words) | AChE Inhibitory Activity | IC50 | IC50 (single alkaloids, mouse brain lysate, Mean ± SEM, n = 3, read-out: IC50) |
| --- | --- | --- | --- | --- |
| COc1ccc2cc1Oc1ccc(cc1)C[C@H]1c3cc(c(OC)cc3CCN1C)Oc1c(OC)c(OC)cc3c1[C@H](C2)N(C)CC3 [Tetrandrine] | did not show AChE inhibitory potency | − |  |  |
| COc1ccc2cc1Oc1ccc(cc1)C[C@H]1c3cc(c(OC)cc3CCN1C)Oc1c(O)c(OC)cc3c1[C@H](C2)N(C)CC3 [Fangchinoline] |  | +++ (for molar concentration, “+++”, “++”, and “+” represent IC50 values of 1–5, 5–10 and 10–20 μM, respectively) | 2.17 ± 0.05 µM |  |
| COc1cc2c(cc1OC)-c1cc3ccc4c(c3c[n+]1CC2)OCO4 [Epiberberine] |  | + (for molar concentration, “+++”, “++”, and “+” represent IC50 values of 1–5, 5–10 and 10–20 μM, respectively) |  | 18.7 ± 0.83 µM |
| c1c2c(cc3c1OCO3)-c1cc3ccc4c(c3c[n+]1CC2)OCO4 [Coptisine] |  | + (for molar concentration, “+++”, “++”, and “+” represent IC50 values of 1–5, 5–10 and 10–20 μM, respectively) | 13.5 ± 1.48 µM |  |
| COc1cc2c(cc1OC)-c1cc3ccc(OC)c(OC)c3c[n+]1CC2 [Palmatine] |  | ++ (for molar concentration, “+++”, “++”, and “+” represent IC50 values of 1–5, 5–10 and 10–20 μM, respectively) | 6.52 ± 0.84 µM |  |
| COc1ccc2cc3[n+](cc2c1OC)CCc1cc2c(cc1-3)OCO2 [Berberine] |  | +++ (for molar concentration, “+++”, “++”, and “+” represent IC50 values of 1–5, 5–10 and 10–20 μM, respectively) | 2.33 ± 0.16 µM |  |
